# Results from patent US9326506B2, “Preparation method, agricultural composition and applications of natural brassinolide analogs” (CHENGDU NEWSUN CROPSCIENCE CO., LTD, priority 2012, dated 2016).
# Tested on: rice
# Assay: Low temperature assay on rice seedlings
# Type: in vivo
# Protocol: According to a low temperature assay, we measured parameters including plant height, number of leaf, area of leaf, number of tiller, weight of root at low temperature to completely determine effects of the natural brassinolide analogues on the resistance to low temperature of a plant.
# The natural brassinolide analogues, BR1, BR2, BR3, BR4, BR5 and BR6, used herein, were those prepared by the method of Example 1. Respectively the analogues were dissolved into 95% (V/V) ethanol solution, and then diluted with pure water to 1 mg/L, 0.1 mg/L, 0.01 mg/L, 0.001 mg/L and 0.0001 mg/L. In addition, pure water was used as a control.
# After rice seeds were disinfected by using 5% sodium hypochlorite solution treatment, they were rinsed with distilled water until their pH>7, placed into a petri dish in a dark incubator, and cultured by using water at 30° C.±2° C. for 9 days. Then respectively the nine-day-old etiolated seedlings of rice were immersed in the above solutions containing different concentrations of the natural brassinolide analogues or pure water, and cultured at the temperature of 1° C., 2° C., 3° C., 4° C. and 5° C. for 24 hr. The parameters including plant height, area of leaf and weight of root after 3, 6, 9 and 12 days and number of leaf and number of tiller after 12 days were measured.
structure (smiles),measurement,setting,value
C=C(C(C)C)[C@@H](O)[C@H](O)[C@@H](C)[C@H]1CCC2C3COC(=O)C4C[C@H](O)[C@H](O)C[C@]4(C)C3CC[C@@]21C (stereo partly shown) [BR3],Height,"0.01 mg/l, 3 °C, 9 days",7.5 cm
same,Weight of root,"0.01 mg/l, 3 °C, 9 days",2.9 g
same,Area of leaf,"0.01 mg/l, 3 °C, 12 days",13.2 cm^2
same,Height,"0.01 mg/l, 3 °C, 12 days",7.8 cm
same,Number of leaf,"0.01 mg/l, 3 °C, 12 days",3
same,Number of tiller,"0.01 mg/l, 3 °C, 12 days",2
same,Weight of root,"0.01 mg/l, 3 °C, 12 days",2.9 g
same,Area of leaf,"0.01 mg/l, 4 °C, 3 days",10.8 cm^2
same,Height,"0.01 mg/l, 4 °C, 3 days",7.1 cm
same,Weight of root,"0.01 mg/l, 4 °C, 3 days",2.5 g
same,Area of leaf,"0.01 mg/l, 4 °C, 6 days",12.4 cm^2
same,Height,"0.01 mg/l, 4 °C, 6 days",7.4 cm
same,Weight of root,"0.01 mg/l, 4 °C, 6 days",2.6 g
same,Area of leaf,"0.01 mg/l, 4 °C, 9 days",13 cm^2
same,Height,"0.01 mg/l, 4 °C, 9 days",7.7 cm
same,Weight of root,"0.01 mg/l, 4 °C, 9 days",2.9 g
same,Area of leaf,"0.01 mg/l, 4 °C, 12 days",13.5 cm^2
same,Height,"0.01 mg/l, 4 °C, 12 days",7.8 cm
same,Number of leaf,"0.01 mg/l, 4 °C, 12 days",3
same,Number of tiller,"0.01 mg/l, 4 °C, 12 days",2
same,Weight of root,"0.01 mg/l, 4 °C, 12 days",3.0 g
same,Area of leaf,"0.01 mg/l, 5 °C, 3 days",10.3 cm^2
same,Height,"0.01 mg/l, 5 °C, 3 days",7.4 cm
same,Weight of root,"0.01 mg/l, 5 °C, 3 days",2.8 g
same,Area of leaf,"0.01 mg/l, 5 °C, 6 days",13.1 cm^2
same,Height,"0.01 mg/l, 5 °C, 6 days",7.6 cm
same,Weight of root,"0.01 mg/l, 5 °C, 6 days",3.0 g
same,Area of leaf,"0.01 mg/l, 5 °C, 9 days",16.4 cm^2
same,Height,"0.01 mg/l, 5 °C, 9 days",7.8 cm
same,Weight of root,"0.01 mg/l, 5 °C, 9 days",3.4 g
same,Area of leaf,"0.01 mg/l, 5 °C, 12 days",17 cm^2
same,Height,"0.01 mg/l, 5 °C, 12 days",8.2 cm
same,Number of leaf,"0.01 mg/l, 5 °C, 12 days",4
same,Number of tiller,"0.01 mg/l, 5 °C, 12 days",3
same,Weight of root,"0.01 mg/l, 5 °C, 12 days",3.9 g
same,Area of leaf,"0.1 mg/l, 1 °C, 3 days",10.1 cm^2
same,Height,"0.1 mg/l, 1 °C, 3 days",7.1 cm
same,Weight of root,"0.1 mg/l, 1 °C, 3 days",2.8 g
same,Area of leaf,"0.1 mg/l, 1 °C, 6 days",11 cm^2
same,Height,"0.1 mg/l, 1 °C, 6 days",7.2 cm
same,Weight of root,"0.1 mg/l, 1 °C, 6 days",2.9 g
same,Area of leaf,"0.1 mg/l, 1 °C, 9 days",12.1 cm^2
same,Height,"0.1 mg/l, 1 °C, 9 days",7.3 cm
same,Weight of root,"0.1 mg/l, 1 °C, 9 days",3.4 g
same,Area of leaf,"0.1 mg/l, 1 °C, 12 days",13.1 cm^2
same,Height,"0.1 mg/l, 1 °C, 12 days",7.4 cm
same,Number of leaf,"0.1 mg/l, 1 °C, 12 days",3
same,Number of tiller,"0.1 mg/l, 1 °C, 12 days",3
same,Weight of root,"0.1 mg/l, 1 °C, 12 days",3.6 g
same,Area of leaf,"0.1 mg/l, 2 °C, 3 days",10.4 cm^2
same,Height,"0.1 mg/l, 2 °C, 3 days",7.1 cm
same,Weight of root,"0.1 mg/l, 2 °C, 3 days",2.8 g
same,Area of leaf,"0.1 mg/l, 2 °C, 6 days",11.2 cm^2
same,Height,"0.1 mg/l, 2 °C, 6 days",7.3 cm
same,Weight of root,"0.1 mg/l, 2 °C, 6 days",3.0 g
same,Area of leaf,"0.1 mg/l, 2 °C, 9 days",12.6 cm^2
same,Height,"0.1 mg/l, 2 °C, 9 days",7.3 cm
same,Weight of root,"0.1 mg/l, 2 °C, 9 days",3 g
same,Area of leaf,"0.1 mg/l, 2 °C, 12 days",13.2 cm^2
same,Height,"0.1 mg/l, 2 °C, 12 days",7.4 cm
same,Number of leaf,"0.1 mg/l, 2 °C, 12 days",3
same,Number of tiller,"0.1 mg/l, 2 °C, 12 days",3
same,Weight of root,"0.1 mg/l, 2 °C, 12 days",3.2 g
same,Area of leaf,"0.1 mg/l, 3 °C, 3 days",10.5 cm^2
same,Height,"0.1 mg/l, 3 °C, 3 days",7.3 cm
same,Weight of root,"0.1 mg/l, 3 °C, 3 days",2.5 g
same,Area of leaf,"0.1 mg/l, 3 °C, 6 days",12 cm^2
same,Height,"0.1 mg/l, 3 °C, 6 days",7.4 cm
same,Weight of root,"0.1 mg/l, 3 °C, 6 days",2.7 g
same,Area of leaf,"0.1 mg/l, 3 °C, 9 days",12.1 cm^2
same,Height,"0.1 mg/l, 3 °C, 9 days",7.8 cm
same,Weight of root,"0.1 mg/l, 3 °C, 9 days",2.7 g
same,Area of leaf,"0.1 mg/l, 3 °C, 12 days",13.4 cm^2
same,Height,"0.1 mg/l, 3 °C, 12 days",7.9 cm
same,Number of leaf,"0.1 mg/l, 3 °C, 12 days",3
same,Number of tiller,"0.1 mg/l, 3 °C, 12 days",2
same,Weight of root,"0.1 mg/l, 3 °C, 12 days",2.9 g
same,Area of leaf,"0.1 mg/l, 4 °C, 3 days",10.8 cm^2
same,Height,"0.1 mg/l, 4 °C, 3 days",7.4 cm
same,Weight of root,"0.1 mg/l, 4 °C, 3 days",2.5 g
same,Area of leaf,"0.1 mg/l, 4 °C, 6 days",12 cm^2
same,Height,"0.1 mg/l, 4 °C, 6 days",7.4 cm
same,Weight of root,"0.1 mg/l, 4 °C, 6 days",2.7 g
same,Area of leaf,"0.1 mg/l, 4 °C, 9 days",13.4 cm^2
same,Height,"0.1 mg/l, 4 °C, 9 days",7.8 cm
same,Weight of root,"0.1 mg/l, 4 °C, 9 days",2.9 g
same,Area of leaf,"0.1 mg/l, 4 °C, 12 days",13.4 cm^2
same,Height,"0.1 mg/l, 4 °C, 12 days",8.1 cm
same,Number of leaf,"0.1 mg/l, 4 °C, 12 days",3
same,Number of tiller,"0.1 mg/l, 4 °C, 12 days",2
same,Weight of root,"0.1 mg/l, 4 °C, 12 days",3.1 g
same,Area of leaf,"0.1 mg/l, 5 °C, 3 days",11 cm^2
same,Height,"0.1 mg/l, 5 °C, 3 days",7.5 cm
same,Weight of root,"0.1 mg/l, 5 °C, 3 days",2.9 g
same,Area of leaf,"0.1 mg/l, 5 °C, 6 days",12.1 cm^2
same,Height,"0.1 mg/l, 5 °C, 6 days",7.5 cm
same,Weight of root,"0.1 mg/l, 5 °C, 6 days",3.2 g
same,Area of leaf,"0.1 mg/l, 5 °C, 9 days",16.2 cm^2
same,Height,"0.1 mg/l, 5 °C, 9 days",8 cm
same,Weight of root,"0.1 mg/l, 5 °C, 9 days",3.5 g
same,Area of leaf,"0.1 mg/l, 5 °C, 12 days",17.9 cm^2
same,Height,"0.1 mg/l, 5 °C, 12 days",8.1 cm
same,Number of leaf,"0.1 mg/l, 5 °C, 12 days",3
same,Number of tiller,"0.1 mg/l, 5 °C, 12 days",2
same,Weight of root,"0.1 mg/l, 5 °C, 12 days",4.1 g
same,Area of leaf,"1 mg/l, 1 °C, 3 days",10 cm^2
same,Height,"1 mg/l, 1 °C, 3 days",7.2 cm
same,Weight of root,"1 mg/l, 1 °C, 3 days",2.6 g
same,Area of leaf,"1 mg/l, 1 °C, 6 days",11 cm^2
same,Height,"1 mg/l, 1 °C, 6 days",7.2 cm
same,Weight of root,"1 mg/l, 1 °C, 6 days",3.1 g
same,Area of leaf,"1 mg/l, 1 °C, 9 days",12.4 cm^2
same,Height,"1 mg/l, 1 °C, 9 days",7.3 cm
same,Weight of root,"1 mg/l, 1 °C, 9 days",3.1 g
same,Area of leaf,"1 mg/l, 1 °C, 12 days",13 cm^2
same,Height,"1 mg/l, 1 °C, 12 days",7.9 cm
same,Number of leaf,"1 mg/l, 1 °C, 12 days",3
same,Number of tiller,"1 mg/l, 1 °C, 12 days",3
same,Weight of root,"1 mg/l, 1 °C, 12 days",3.7 g
same,Area of leaf,"1 mg/l, 2 °C, 3 days",10.2 cm^2
same,Height,"1 mg/l, 2 °C, 3 days",7.2 cm
same,Weight of root,"1 mg/l, 2 °C, 3 days",2.6 g
same,Area of leaf,"1 mg/l, 2 °C, 6 days",11.7 cm^2
same,Height,"1 mg/l, 2 °C, 6 days",7.2 cm
same,Weight of root,"1 mg/l, 2 °C, 6 days",3.0 g
same,Area of leaf,"1 mg/l, 2 °C, 9 days",12 cm^2
same,Height,"1 mg/l, 2 °C, 9 days",7.4 cm
same,Weight of root,"1 mg/l, 2 °C, 9 days",3.2 g
same,Area of leaf,"1 mg/l, 2 °C, 12 days",13 cm^2
same,Height,"1 mg/l, 2 °C, 12 days",8 cm
same,Number of leaf,"1 mg/l, 2 °C, 12 days",3
same,Number of tiller,"1 mg/l, 2 °C, 12 days",3
same,Weight of root,"1 mg/l, 2 °C, 12 days",3.7 g
same,Area of leaf,"1 mg/l, 3 °C, 3 days",10.4 cm^2
same,Height,"1 mg/l, 3 °C, 3 days",7.4 cm
same,Weight of root,"1 mg/l, 3 °C, 3 days",2.5 g
same,Area of leaf,"1 mg/l, 3 °C, 6 days",12 cm^2
same,Height,"1 mg/l, 3 °C, 6 days",7.5 cm
same,Weight of root,"1 mg/l, 3 °C, 6 days",2.6 g
same,Area of leaf,"1 mg/l, 3 °C, 9 days",12 cm^2
same,Height,"1 mg/l, 3 °C, 9 days",7.7 cm
same,Weight of root,"1 mg/l, 3 °C, 9 days",2.7 g
same,Area of leaf,"1 mg/l, 3 °C, 12 days",13.2 cm^2
same,Height,"1 mg/l, 3 °C, 12 days",8.1 cm
same,Number of leaf,"1 mg/l, 3 °C, 12 days",3
same,Number of tiller,"1 mg/l, 3 °C, 12 days",2
same,Weight of root,"1 mg/l, 3 °C, 12 days",2.9 g
same,Area of leaf,"1 mg/l, 4 °C, 3 days",10.9 cm^2
same,Height,"1 mg/l, 4 °C, 3 days",7.4 cm
same,Weight of root,"1 mg/l, 4 °C, 3 days",2.5 g
same,Area of leaf,"1 mg/l, 4 °C, 6 days",12 cm^2
same,Height,"1 mg/l, 4 °C, 6 days",7.5 cm
same,Weight of root,"1 mg/l, 4 °C, 6 days",2.7 g
same,Area of leaf,"1 mg/l, 4 °C, 9 days",13.2 cm^2
same,Height,"1 mg/l, 4 °C, 9 days",7.8 cm
same,Weight of root,"1 mg/l, 4 °C, 9 days",3.0 g
same,Area of leaf,"1 mg/l, 4 °C, 12 days",14 cm^2
same,Height,"1 mg/l, 4 °C, 12 days",8.2 cm
same,Number of leaf,"1 mg/l, 4 °C, 12 days",3
same,Number of tiller,"1 mg/l, 4 °C, 12 days",2
same,Weight of root,"1 mg/l, 4 °C, 12 days",3.2 g
same,Area of leaf,"1 mg/l, 5 °C, 3 days",11.1 cm^2
same,Height,"1 mg/l, 5 °C, 3 days",7.4 cm
same,Weight of root,"1 mg/l, 5 °C, 3 days",2.9 g
same,Area of leaf,"1 mg/l, 5 °C, 6 days",13.1 cm^2
same,Height,"1 mg/l, 5 °C, 6 days",7.5 cm
same,Weight of root,"1 mg/l, 5 °C, 6 days",3.5 g
same,Area of leaf,"1 mg/l, 5 °C, 9 days",18 cm^2
same,Height,"1 mg/l, 5 °C, 9 days",8.2 cm
same,Weight of root,"1 mg/l, 5 °C, 9 days",3.7 g
same,Area of leaf,"1 mg/l, 5 °C, 12 days",20 cm^2
same,Height,"1 mg/l, 5 °C, 12 days",8.3 cm
same,Number of leaf,"1 mg/l, 5 °C, 12 days",3
same,Number of tiller,"1 mg/l, 5 °C, 12 days",2
same,Weight of root,"1 mg/l, 5 °C, 12 days",4.5 g
